Results published in patent publication US20120283269A1, “Method and Compositions for Suppression of Aging” (HEALTH RESEARCH INC., priority 2009, published 2012).

Assays:
[1] = test system: HT-p21-9 cells; settings: previously reported (Demidenko 2009); cited from earlier work
[2] = test system: mTOR pathway; settings: previously reported (Demidenko 2009); cited from earlier work
[3] = test system: WI-38-tert cells; assay: Senescence / quiescence in WI-38-tert fibroblasts; type: cell-based, human; settings: compound alone
Experimental: (§1) FIG. 4. […] HT-p21-a cells were treated with IPTG and infected with Ad-p53. After 3 days, cells were photographed (original magnification ×200): Upper panel. Under blue light to visualize cells expressing p53 (green cells). Lower panel. Under visible light to visualize all cells. Red arrows indicate cells lacking p53 expression. All of these cells show large, flat cell morphology. Green arrows indicate cells expressing p53. b-d. […] After 1 day, cells were lysed and immunoblot was performed as described in Methods for Example 1. c. […] Cells were then stained for beta-Gal activity and microphotographed. Scale bar—50 μm.d. […] Cells were then trypsinized and counted. […] Results are shown as percent of control.
FIG. 11. Effects of Ad-p21 and Ad-p53 on senescent morphology in WI-38-tert fibroblasts. WI-38-tert cells were infected with either p21-expressing adenovirus (Ad-p21) or p53-expressing adenovirus (Ad-p53) or both. After 3 days, cells were stained for beta-Gal.
Cell lines and reagents. HT-p21-9 and HT-p21-a cells are derivatives of HT1080 human fibrosarcoma cells, where p21 expression can be turned on or off using isopropyl-thio-galactosidase (IPTG) (7, 16, 28, 29, 36). […] HT-p16 cells are derivatives of HT1080 cells in which p16 expression can be turned on or off using IPTG (16, 36). WI-38-Tert, WI-38 are fibroblasts immortalized by telomerase. HT-p21-GSE56 cells: p53 inhibiting peptide GSE56 (18) was introduced into HT1080 p21-9 cells via a retroviral vector LXSE (37). Cells were grown in high glucose DMEM with 10% FC2 serum. WI-38-tert cells were grown in low glucose DMEM with 10% FCS. Rapamycin was obtained from LC Laboratories (Woburn, Mass.). IPTG (final concentration of 50 μg/ml) and FC2 were obtained from Sigma-Aldrich (St. Louis, Mo.).
Beta-galactosidase staining Beta-gal staining was performed using Senescence-galactosidase staining kit (Cell Signaling Technology).

[4] = test system: mTOR pathway; assay: Immunoblot for p53, p-S6, p-S6K in WI-38-tert fibroblasts; type: cell-based, human
Experimental: as §1
FIG. 12. […] Immunoblot for p53, p-S6, p-S6K, S6 and actin was performed as described in Methods for Example 1.
Immunoblot analysis. Proteins were separated on 4-15% gradient Tris-HCl gels (Bio-Rad). The following antibodies were used: mouse anti-actin from Santa Cruz Biotechnology, rabbit anti-phospho-S6 (Ser240/244) and (Ser235/236), mouse anti-S6, mouse anti-phospho-p70 S6 kinase (Thr389), mouse anti-p21 and anti-p53, rabbit anti-phospho-4E-BP1 (Thr37/46) from Cell Signaling; mouse anti-4E-BP1 from Invitrogen, mouse anti-p53 (Ab-6) from Calbiochem.

[5] = test system: HT-p21 cells; assay: Cellular hypertrophy (protein and GFP per cell) in IPTG-treated HT-p21 cells, rapamycin dose response; type: cell-based, human; settings: this particular cell line
Experimental: (§2) FIG. 18. Correlation between S6 phosphorylation, hypertrophy and loss of proliferative potential in senescent cells. HT-p21 cells were plated in 6 well plates and treated with IPTG plus the increasing concentrations of rapamycin (from 0.16 to 500 nM). At concentration 0, cells were treated with IPTG alone. A. Cellular hypertrophy: protein and GFP. After 3 days, soluble protein and GFP were measured per well. [Note: in non-proliferating cells, protein/well is a measure of protein/cells]. Results are shown as percent of IPTG alone (0) without rapamycin. B. After 3 days, cells were lysed and immunobloted for p-S6, S6 and p21.
Cell lines and reagents. In HT-p21 cells, p21 expression can be turned on or off using […] (IPTG). HT-p21 cells were cultured in DMEM medium supplemented with FC2 serum. Rapamycin was obtained from LC Laboratories and dissolved in DMSO as 2 mM solution and was used at final concentration of 500 nM, unless otherwise indicated. IPTG and FC2 were obtained from Sigma-Aldrich (St. Louis, Mo.). IPTG was dissolved in water as 50 mg/ml stock solution and used in cell culture at final concentration of 50 μg/ml.

[6] = test system: S6 phosphorylation, a marker of mTOR activity; assay: Immunoblot for p-S6, S6 and p21 in IPTG-treated HT-p21 cells, rapamycin; type: cell-based, human; settings: IPTG plus rapamycin, 3 days
Experimental: as §2
FIG. 24. Induction of p21 by IPTG. HT-p21 cells were plated in 6 well plates and treated with IPTG with or without rapamycin as indicated. The next day, cells were lysed and immunoblot for p-S6, S and p21 was performed as described in Methods.
Immunoblot analysis. Cells were lysed and soluble proteins were harvested as previously described. […] Cells were counted on a Coulter Z1 cell counter (Hialeah, Fla.). […] Plates were photographed and the number of colonies were determined as previously described. […] Thereafter, cells were washed in PBS, and the number of -galactosidase activity-positive cells (blue staining) were counted under bright field illumination.

[7] = test system: HT-p21 cells; assay: Preservation of proliferative competence (PC), cell counting after wash; type: cell-based, human
Experimental: C. PC: preservation of proliferative competence. After 3 days, cells were washed to remove IPTG and RAPA. Cells were incubated for additional 5 days in the fresh medium and then were counted. Results are shown as percent of IPTG alone (0) without rapamycin.
FIG. 20. The dynamics of cell numbers. 500 HT-p21 cells were plated in 12 well plates. On the next day, either IPTG alone (I) or IPTG plus rapamycin (I+R) were added. After 3 days, plates were washed (I/w and I+R/w) or left unwashed. Cells were counted at days 1, 3, 6 and 9. Upper panel: linear-scale. Lower panel: log-scale. Open and closed squares: IPTG and IPTG plus Rapa, respectively. Open and closed circles: IPTG washed (I/w) and IPTG plus Rapa washed (I+R/w), respectively.
Immunoblot analysis. Cells were lysed and soluble proteins were harvested as previously described. Immunoblot analysis was performed using mouse monoclonal anti-p21, mouse monoclonal anti-phospho-S6 Ser240/244 (Cell Signaling, MA, USA), rabbit polyclonal anti-S6 (Cell Signaling, MA, USA) and mouse monoclonal anti-tubulin Ab as previously described. Cell counting. Cells were counted on a Coulter Z1 cell counter (Hialeah, Fla.). […] Plates were photographed and the number of colonies were determined as previously described. […] Thereafter, cells were washed in PBS, and the number of -galactosidase activity-positive cells (blue staining) were counted under bright field illumination.

[8] = test system: HT-p21 cells; assay: Colony formation assay after IPTG with or without rapamycin; type: cell-based, human; settings: IPTG plus rapamycin 3 days, washed; versus IPTG alone

## N#CC(=C(/N)Sc1ccccc1N)/C(C#N)=C(\N)Sc1ccccc1N [U0126]
[1]
  cellular senescence: suppress cellular senescence
[2]
  mTOR pathway in HT-p21-9 cells, measured by phosphorylation of S6: deactivate the mTOR pathway

## COc1cccc2c1C(=O)c1c(O)c3c(c(O)c1C2=O)C[C@@](O)(C(=O)CO)C[C@@H]3O[C@H]1C[C@H](N)[C@H](O)[C@H](C)O1 [doxorubicin]
[3]
  type of arrest in WI-38-tert cells: caused senescence in WI-38-tert cells
[4]
  inhibition of mTOR: does not inhibit mTOR

## CO[C@H]1C[C@@H]2CC[C@@H](C)[C@@](O)(O2)C(=O)C(=O)N2CCCC[C@H]2C(=O)O[C@H]([C@H](C)C[C@@H]2CC[C@@H](O)[C@H](OC)C2)CC(=O)[C@H](C)/C=C(\C)[C@@H](O)[C@@H](OC)C(=O)[C@H](C)C[C@H](C)/C=C/C=C/C=C/1C [rapamycin]
[5]
  concentration required for anti-hypertrophic effects: 100 to 500 nM
[6]
  concentrations that inhibited S6 phosphorylation: ≥ 20 nM
[7]; I/w and I+R/w conditions
  doubling time of the competent cells: 20 to 24 h
[7]; IPTG plus rapamycin 3 days, washed, 5 more days, percent of IPTG alone
  PC (preservation of competence): 800%
[8]
  increase in number of colonies (number of competent cells): ~10 fold
